The term IC50 denotes the concentration at which inhibition is half-maximal. The AUC(0-inf) is total exposure, with the tail of the curve extrapolated. Higher therefore signals more exposure. Broadly, the Cmax is the maximum level reached in the sampled fluid or tissue. Usually Tmax stands for the time from dosing to the highest level. As a reminder, the bioavailability is the share of a dose that reaches the circulation, judged against a reference dose that is usually intravenous. Lower therefore signals poor availability. Usually half-life stands for the time in which the quantity being followed falls by half.

One compound from patent publication US11932652B2, “Pyrrolidinyl urea derivatives and application thereof in TrkA-related diseases” (ZHANGZHOU PIEN TZE HUANG PHARMACEUTICAL CO., LTD., priority 2018, dated 2024) can be followed below.

In one data set the test system is plasma protein. Kind of data set: Plasma protein binding rate (PPB) test, human plasma. It is filed as in vitro ADME. The settings on record: 2 μM, dialysis 37° C. 4 hours. The procedure: The protein binding rates of the test compound in the plasma of humans, SD rats and Beagle dogs were determined.
796 μL of blank plasma from humans, SD rats and Beagle dogs (plasma purchased from BioreclamationIVT) were taken, 4 μL of working solution of the test compound (400 μM) or warfarin working solution (400 μM) was added and the final concentration of the test compound or warfarin was 2 μM. The sample was mixed thoroughly. The final concentration of organic phase DMSO was 0.5%; 50 μL of the plasma sample treated with the test compound or warfarin was pipetted into the sample receiving plate, and a corresponding volume of blank plasma or buffer was added immediately so that the final volume in each sample well was 100 μL, the volume ratio of plasma:dialysis buffer was 1:1; 400 μL of stop solution was added to these samples, and these samples were used as T0 samples for recovery and stability determination. To samples were stored at 2° C. to 8° C. for subsequent processing together with other dialyzed samples; 150 μL of the plasma sample treated with the test compound or warfarin was added into the dosing end of each dialysis hole, and 150 μL of blank dialysis buffer was added to the receiving end corresponding to the dialysis hole. Then the dialysis plate was sealed with gas-permeable membrane and placed in a humidified 5% CO2 incubator, and incubated at 37° C. with 100 rpm shaking for 4 hours. After the dialysis, 50 μL of the dialysis buffer sample and the dialysis plasma sample was transferred to a new sample receiving plate. […] All samples were analyzed by LC/MS/MS after protein precipitation, and the plasma protein unbound rate, binding rate and recovery rate was calculated according to the following formula: % unbound rate=100*free compound concentration at the membrane buffer side/total compound concentration at the membrane plasma side, % protein binding rate=100-% unbound rate, % recovery rate=100*(free compound concentration at the membrane buffer side+total compound concentration at the membrane plasma side)/total compound concentration before dialysis.

Another data set deals with T1, CYP3A4 (Homo sapiens, UniProt P08684).
T1 construct: from tissue; host or cells: human liver microsomes
Kind of data set: Cytochrome P450 isozyme inhibitory activity test, CYP3A4. It is filed as in vitro ADME. The following applies: heading: Cytochrome P450 isozyme IC50, CYP3A4; human liver microsome. Here is the method:
Determination of the inhibitory activity of the test compound on different human cytochrome P450 isozymes.
The test compound, standard inhibitor (100×final concentration), and a mixed substrate working solution were prepared; the microsome frozen in −80° C. refrigerator was thawed. 2 μL of the test compound and standard inhibitor solution was added to the corresponding wells, and at the same time 2 μL of the corresponding solvent was added to the non-inhibitor control wells (NIC) and blank control wells (Blank) wells; then 20 μL of mixed substrate solution was added to the corresponding wells, except for the Blank wells (20 μL of PB was added to the Blank wells); a human liver microsome solution was prepared (put back into the refrigerator immediately after using and marking the date), and then 158 μL of the human liver microsome solution was added to all wells; the above sample plate was placed in a 37° C. water bath for pre-incubation, then the coenzyme factor (NADPH) solution was prepared; 10 minutes later, 20 μL of the NADPH solution was added to all wells, and the sample plate was shaken well, placed in a 37° C. water bath and incubated for 10 minutes; at the corresponding time point, 400 μL of cold acetonitrile solution (internal standard: 200 ng/mL tolbutamide and labetalol) was added to terminate the reaction; the sample plate was evenly mixed, centrifuged at 4000 rpm for 20 minutes to precipitate proteins; 200 μL of the supernatant was added to 100 μL of water, shook well, and tested by LC/MS/MS.
(Liver microsomes are a subcellular fraction often used to study metabolism.)

A short description of data set [1]: In vivo pharmacokinetics in rats after single administration. The settings on record: male, Sprague-Dawley, rat, plasma, 10 mg/kg, 10 mpk oral administration. Here is the method: Male SD rats were used as test animals, and the concentration of the compound in blood was determined after single administration to evaluate the pharmacokinetic behavior.
Sprague Dawley rats (male, 200-300 g, 7-9 weeks, Shanghai Charles River Laboratory Animal Co., Ltd.)
The pharmacokinetic characteristics of the test compound in rodents after intravenous injection and oral administration were tested by standard protocols, in the experiment, the test compound was prepared into a clear solution or homogeneous suspension, and administered to the rats by single intravenous injection and oral administration. In the intravenous injection group, the menstruum was a certain proportion of ethanol and physiological saline solution or a certain proportion of dimethyl sulfoxide in HP-β cyclodextrin solution (pH was adjusted to 3-4), the mixture was vortexed and stirred to prepare 2 mg/mL or 1 mg/mL clear solution, then filtered with microporous membrane for later use; in the oral administration group, the menstruum was a certain proportion of sodium carboxymethyl cellulose solution or a certain proportion of dimethyl sulfoxide in HP-0 cyclodextrin solution (pH was adjusted to about 4), after the test compound was mixed with the solvent, the mixture was vortexed and stirred to prepare 2 mg/mL or 1 mg/mL homogeneous suspension or clear solution for later use. After 2 mg/kg intravenous administration or 10 mg/kg oral administration to rats, a certain amount of whole blood samples were collected, centrifuged at 3000 g for 15 minutes, the supernatant was separated to give the plasma samples; then an acetonitrile solution containing internal standard with a volume 3 times that of the plasma sample was added to precipitate proteins, and then centrifuged; the supernatant was separated, and water with a volume twice that of the supernatant was added to the supernatant, which was then centrifuged again; the supernatant was collected for analysis; LC-MS/MS analysis method was used to quantitatively analyze the blood drug concentration, and Phoenix WinNonlin software (Pharsight, USA) was used to calculate the pharmacokinetic parameters, such as peak concentration, time to peak concentration, clearance rate, half-life, area under the concentration-time curve, bioavailability, etc.
Among them, C0 is the initial concentration, T1/2 is the elimination half-life, Vdss is the steady-state apparent volume of distribution, Cl is the total clearance rate, AUC0-inf is the area under the plasma drug concentration-time curve from time 0 to infinity, Cmax is the peak concentration, Tmax is the time to peak concentration.

T1 sequence (P08684 whole entry): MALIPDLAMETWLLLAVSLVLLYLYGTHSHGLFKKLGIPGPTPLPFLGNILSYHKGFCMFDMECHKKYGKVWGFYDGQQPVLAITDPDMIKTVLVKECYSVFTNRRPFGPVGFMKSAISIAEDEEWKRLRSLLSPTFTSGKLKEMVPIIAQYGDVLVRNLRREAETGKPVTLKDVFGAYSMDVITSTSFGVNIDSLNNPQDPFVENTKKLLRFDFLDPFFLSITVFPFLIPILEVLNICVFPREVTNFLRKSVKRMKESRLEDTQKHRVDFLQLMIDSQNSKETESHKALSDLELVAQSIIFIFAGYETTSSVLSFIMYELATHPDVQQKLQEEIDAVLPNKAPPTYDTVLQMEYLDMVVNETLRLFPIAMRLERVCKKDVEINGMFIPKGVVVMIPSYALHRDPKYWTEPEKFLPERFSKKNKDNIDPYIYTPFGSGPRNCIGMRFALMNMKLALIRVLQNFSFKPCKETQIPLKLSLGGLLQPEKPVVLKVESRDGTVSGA

In the case of `COCCN1C[C@@H](n2ccc(F)c2)[C@H](NC(=O)Nc2c(C)c(-c3cnc(C4(F)COC4)nc3)nn2-c2ccccc2)C1` [Compound 7], the “Plasma protein unbound rate, Human plasma” value in the data set with plasma protein was 13.2%. Besides, the half-maximal inhibitory concentration (IC50) at CYP3A4 was over 50 µM. In addition, in data set [1], the AUC(0-inf) worked out at 3.24 µM·h, the highest concentration (Cmax) is 1790 nM, the Tmax was found to be 0.63 h and the bioavailability came out at 24.8%. The half-life in data set [1] was 1.6 h.
